# From patent publication EP4810038A1, “METHOD FOR TREATING ALK-POSITIVE OR ROS1-POSITIVE NON-SMALL CELL LUNG CANCER” (Shenzhen TargetRx Co., Ltd., priority 2023, dated 2025)
# “Also recorded” adds a separate entry of the source.
# What was measured:
# [1] = Phase I clinical trial: safety and tolerability (TRAE, CNS-related AE, DLT, MTD, RP2D); format: in vivo; details: for Any TRAE / TRAE Anemia / TRAE Diarrhea / TRAE Edema / TRAE Elevated alanine aminotransferase / TRAE Elevated creatinine / TRAE Hypercholesterolemia / TRAE Hypertriglyceridemia / TRAE Hyperuricemia / TRAE Hypoproteinemia / TRAE Increased AST / TRAE Increased LDL cholesterol / TRAE Increased creatine phosphokinase / TRAE Increased glutamine transferase / TRAE Increased lipase / TRAE Peripheral neuropathy / TRAE Positive for occult blood in urine / TRAE Proteinuria / TRAE Weight gain: In total n=198
# Description: An adverse event will be described using MedDRA (Medical Dictionary for Regulatory Activities). Analysis of an adverse event will be based on a treatment emergent adverse event (TEAE). TEAE is defined as an adverse event that occur or worsen after a treatment/medication.
# Subjects in all the dose groups received a single dose on day 1 (D1), and the blood samples were collected for pharmacokinetic (PK) assay and tolerability observation. […] The administration frequency for the subjects in the subsequent dose groups after entering the multiple-dose period was determined based on the obtained PK and tolerability data. In this trial, the administration frequency for all the subjects could be adjusted throughout the trial based on the continuously acquired safety and PK data. The four lower dose groups (5 mg, 10 mg, 20 mg and 40 mg) used an accelerated titration design, with one subject enrolled in each dose group. […] The 60 mg dose group and the subsequent dose groups followed a "3+3" dose escalation method, and the MTD was determined. […] During the dose escalation, if a dose group was confirmed to have a preliminary antitumor effect and manageable safety (e.g., no DLT occurred in 3 subjects or only 1 out of 6 subjects experienced DLT), the dose level could be expanded after a discussion and confirmation by the researcher and the sponsor.
# [2] = Phase II single-arm trial: safety analysis; format: in vivo; details: 60 mg QD
# Description: Once a subject met the criteria for the discontinuation of the treatment/withdrawal from the treatment and discontinued the medication, the subject entered a 4-week safety follow-up period. If other anti-tumor therapies were used during the safety follow-up period, a safety follow-up visit and inspection must be completed before starting the other anti-tumor therapies. For the unresolved adverse event or abnormal laboratory test, the follow-up continued until the event was resolved, the subject returned to the baseline status, the condition stabilized, a reasonable explanation was obtained, or the subject was lost to follow-up or died.
smiles,measurement,setting,value
"[2H]C([2H])([2H])n1nc2c(c1C#N)-c1cnc(N)c(c1)O[C@H](C)c1cc(F)ccc1C(=O)N(C)C2 [compound A, (10R)-7-amino-12-fluoro-2-(methyl-d3)-10,16-dimethyl-15-oxo-10,15,16,17-tetrahydro-2H-8,4-(metheno)pyrazolo[4,3-h][2,5,11]benzoxadiazacyclotetradecine-3-carbonitrile]",Any TRAE,[1]; any level,184 (92.9%) number of cases (%)
same,TRAE Anemia,[1]; any level,27 (13.6) number of cases (%)
same,TRAE Diarrhea,[1]; any level,13 (6.6) number of cases (%)
same,TRAE Edema,[1]; any level,51(25.8) number of cases (%)
same,TRAE Elevated alanine aminotransferase,[1]; any level,18 (9.1) number of cases (%)
same,TRAE Elevated creatinine,[1]; any level,12 (6.1) number of cases (%)
same,TRAE Hypercholesterolemia,[1]; any level,154 (77.8) number of cases (%)
same,TRAE Hypertriglyceridemia,[1]; any level,147 (74.2) number of cases (%)
same,TRAE Hyperuricemia,[1]; any level,27 (13.6) number of cases (%)
same,TRAE Hypoproteinemia,[1]; any level,10 (5.1) number of cases (%)
same,TRAE Increased AST,[1]; any level,20 (10.1) number of cases (%)
same,TRAE Increased LDL cholesterol,[1]; any level,51 (25.8) number of cases (%)
same,TRAE Increased creatine phosphokinase,[1]; any level,11 (5.6) number of cases (%)
same,TRAE Increased glutamine transferase,[1]; any level,10 (5.1) number of cases (%)
same,TRAE Increased lipase,[1]; any level,19 (9.6) number of cases (%)
same,TRAE Peripheral neuropathy,[1]; any level,38(19.2) number of cases (%)
same,TRAE Positive for occult blood in urine,[1]; any level,13 (6.6) number of cases (%)
same,TRAE Proteinuria,[1]; any level,10 (5.1) number of cases (%)
same,TRAE Weight gain,[1]; any level,91 (46.0) number of cases (%)
same,Any TRAE,[1]; ≥3,73 (36.9%) number of cases (%)
same,TRAE Anemia,[1]; ≥3,4 (2.0) number of cases (%)
same,TRAE Diarrhea,[1]; ≥3,0 number of cases (%)
same,TRAE Edema,[1]; ≥3,3(1.5) number of cases (%)
same,TRAE Elevated alanine aminotransferase,[1]; ≥3,0 number of cases (%)
same,TRAE Elevated creatinine,[1]; ≥3,0 number of cases (%)
same,TRAE Hypercholesterolemia,[1]; ≥3,18 (9.1) number of cases (%)
same,TRAE Hypertriglyceridemia,[1]; ≥3,38 (19.2) number of cases (%)
same,TRAE Hyperuricemia,[1]; ≥3,4 (2.0) number of cases (%)
same,TRAE Hypoproteinemia,[1]; ≥3,0 number of cases (%)
same,TRAE Increased AST,[1]; ≥3,0 number of cases (%)
same,TRAE Increased LDL cholesterol,[1]; ≥3,0 number of cases (%)
same,TRAE Increased creatine phosphokinase,[1]; ≥3,0 number of cases (%)
same,TRAE Increased glutamine transferase,[1]; ≥3,2 (1.0) number of cases (%)
same,TRAE Increased lipase,[1]; ≥3,1 (0.5) number of cases (%)
same,TRAE Peripheral neuropathy,[1]; ≥3,1(0.5) number of cases (%)
same,TRAE Positive for occult blood in urine,[1]; ≥3,0 number of cases (%)
same,TRAE Proteinuria,[1]; ≥3,0 number of cases (%)
same,TRAE Weight gain,[1]; ≥3,14 (7.1) number of cases (%)
same,"incidence of other AE, 60 mg dose group versus 80 mg dose group",[1]; dose escalation and dose expansion phases,significantly lower
same,dose-limiting toxicity (DLT),"[1]; dose escalation phase, 5 to 125 mg",No DLT was observed; also recorded: No dose-limiting toxicity was observed
same,MTD,[1]; dose escalation up to 125 mg,not reached
same,Any CNS-related AE,[1]; ≥3,2 (1.0) number of cases (%)
same,CNS-related AE: Anger,[1]; ≥3,0 number of cases (%)
same,CNS-related AE: Cognitive impairment,[1]; ≥3,0 number of cases (%)
same,CNS-related AE: Depression,[1]; ≥3,0 number of cases (%)
same,CNS-related AE: Disorganized speech,[1]; ≥3,0 number of cases (%)
same,CNS-related AE: Impact on cognition,[1]; ≥3,1 (0.5) number of cases (%)
same,CNS-related AE: Impact on language,[1]; ≥3,1 (0.5) number of cases (%)
same,CNS-related AE: Insomnia,[1]; ≥3,0 number of cases (%)
same,CNS-related AE: Memory impairment,[1]; ≥3,0 number of cases (%)
same,CNS-related AE: Mental disorder,[1]; ≥3,1 (0.5) number of cases (%)
same,CNS-related AE: Poor sleep quality,[1]; ≥3,0 number of cases (%)
same,CNS-related AE: Speech disorder,[1]; ≥3,1 (0.5) number of cases (%)
same,common TRAEs,[2],"hypercholesterolemia, hypertriglyceridemia, weight gain, anemia, and peripheral edema"
same,"incidence of TRAEs leading to dose reduction, temporary or permanent discontinuation of medication",[2],low
